Test results: the NIST ThermoML archive (doi:10.1016/j.fluid.2017.06.026)
± gives the expanded uncertainty stated by the source.

Conditions: 298.15 K, Ring tensiometer

| Structure (SMILES) | surface tension liquid-gas |
| --- | --- |
| O=P(OCC(F)(F)C(F)(F)C(F)(F)C(F)F)(OCC(F)(F)C(F)(F)C(F)(F)C(F)F)OCC(F)(F)C(F)(F)C(F)(F)C(F)F [tris (1H,1H,5H-octafluoropentyl) phosphate] | 22.9 ± 3 mN/m |
| CCCCCOP(=O)(OCCCCC)OCCCCC [tripentyl phosphate] | 26.2 ± 3 mN/m |
